What was measured:
Format in all cases: biochemical
human CHK1 = target: T1, human CHK1 (Homo sapiens, UniProt O14757); assay: CHK1 Assay (coupled spectrophotometric)
T1 construct: C-terminally His-tagged full-length human CHK1 (FL-CHK1) was expressed using the baculovirus/insect cell system; made in house; host or cells: baculovirus/insect cells
T1 sequence (O14757 1-476): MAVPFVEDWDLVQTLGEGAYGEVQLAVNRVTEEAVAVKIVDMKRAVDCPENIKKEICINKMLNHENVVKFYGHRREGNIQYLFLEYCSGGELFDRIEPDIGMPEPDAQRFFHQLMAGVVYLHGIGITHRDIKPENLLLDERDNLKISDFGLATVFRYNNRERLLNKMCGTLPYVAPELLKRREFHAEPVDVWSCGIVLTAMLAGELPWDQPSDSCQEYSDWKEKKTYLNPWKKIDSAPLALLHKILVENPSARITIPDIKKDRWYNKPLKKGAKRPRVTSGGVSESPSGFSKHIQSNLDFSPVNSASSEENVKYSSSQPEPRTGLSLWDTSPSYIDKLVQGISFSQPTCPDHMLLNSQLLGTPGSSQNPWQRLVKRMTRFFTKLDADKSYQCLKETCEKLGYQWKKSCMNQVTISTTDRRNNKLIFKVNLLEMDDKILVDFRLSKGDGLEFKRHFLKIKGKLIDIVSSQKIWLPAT
Description: C-terminally His-tagged full-length human CHK1 (FL-CHK1) was expressed using the baculovirus/insect cell system. It contains 6 histidine residues (6×His-tag) at the C-terminus of the 476 amino acid human CHK1. The protein was purified by conventional chromatographic techniques.
The production of ADP from ATP that accompanies phosphoryl transfer to the synthetic substrate peptide Syntide-2 ([…]) was coupled to oxidation of NADH using phosphoenolpyruvate (PEP) through the actions of pyruvate kinase (PK) and lactic dehydrogenase (LDH). The oxidation of NADH was monitored by following the decrease of absorbance at 340 nm (ε340=6.22 cm^−1 mM^−1) using a HP8452 spectrophotometer. Typical reaction solutions contained: […]; 0.15 mM NADH; 28 units of LDH/ml; 16 units of PK/ml; 3 mM DTT; 0.125 mM Syntide-2; 0.15 mM ATP; 25 mM MgCl2 in 50 mM TRIS, pH 7.5; and 400 mM NaCl. Assays were initiated with 10 nM of FL-CHK1. Ki values were determined by measuring initial enzyme activity in the presence of varying concentrations of test compounds. The data were analyzed using Enzyme Kinetic and Kaleidagraph software.

LCK tyrosine kinase = target: T2, LCK tyrosine kinase (Homo sapiens, UniProt P06239, C224D/P223M); assay: Inhibition of phosphorylated LCK tyrosine kinase activity; settings: read-out: LCK % Inhib. at 1 μM
T2 construct: starting from amino acid 223 to the end of the protein at amino acid 509; made in house; host or cells: insect cells
T2 sequence (P06239 223-509 P223M/C224D): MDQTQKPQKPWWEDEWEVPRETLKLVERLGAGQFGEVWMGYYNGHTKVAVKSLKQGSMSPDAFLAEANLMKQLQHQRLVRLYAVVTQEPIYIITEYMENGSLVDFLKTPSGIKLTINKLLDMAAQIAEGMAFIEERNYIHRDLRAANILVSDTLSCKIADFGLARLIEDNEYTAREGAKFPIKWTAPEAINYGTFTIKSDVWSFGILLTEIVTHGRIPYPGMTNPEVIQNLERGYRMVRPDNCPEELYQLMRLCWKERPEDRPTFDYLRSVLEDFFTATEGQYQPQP
Experimental: Inhibition of Phosphorylated FGF Receptor and LCK Tyrosine Kinase Activity
Cloning, expression and purification of the cytosolic domain of FGFR1 tyrosine kinase (amino acids 456–766) containing three amino acid substitutions (L457V, C488A, and C584S) were conducted as previously described (Mohammadi, M., Schlessinger, J., & Hubbard, S. R. (1996) Cell 86, 577–587). This domain was expressed in Sf9 insect cells using a baculovirus expression vector, and protein was purified using conventional techniques. The LCK tyrosine kinase was expressed in insect cells as an N-terminal deletion starting from amino acid 223 to the end of the protein at amino acid 509. The N-terminus of the protein also had two amino acid substitutions, P223M and C 224D. Kinases were purified using conventional chromatographic methods.
Tyrosine kinase activity was measured using a coupled, continuous spectrophotometric assay, in which production of phosphorylated poly(Glu, Tyr; 4:1) substrate and ADP is coupled to the pyruvate kinase-catalyzed transfer of a phosphate from phosphoenolpyruvate to ADP, with generation of pyruvate and regeneration of ATP. Pyruvate production is in turn coupled to the lactate dehydrogenase-catalyzed reduction of pyruvate to form lactate, with concomitant conversion of NADH to NAD+. Loss of NADH is monitored by measuring absorbance at 340 nm (see e.g., Technikova-Dobrova et al., “Spectrophotometric determination of functional characteristics of protein kinases with coupled enzymatic assay,” FEBS Letters, vol. 292 (1991), pp. 69–72). Enzyme activity was measured in the presence of 200 mM HEPES (pH 7.5), 2 mM phosphoenolpyruvate, 0.3 mM NADH, 20 mM MgCl2, 100 μM ATP, 5 mM DTT, 5.1 or 25 mM poly (Glu,Tyr) 4:1 for P-FGF or P-LCK assays, respectively, and 15 units/mL each of pyruvate kinase and lactate dehydrogenase. Phosphorylated FGF receptor kinase was present at 100 nM and phosphorylated LCK kinase was present at 50 nM. Assays were performed under initial rate conditions at 37° C., and rates were corrected for any background rate measured in the absence of enzyme. Percent inhibition was calculated relative to control enzyme assayed in the presence of 2% (v/v) DMSO.

FAK = assay: Coupled Spectrophotometric (FAK) Assay
Experimental: Coupled Spectrophotometric (FAK) Assay
Tyrosine kinase assays were monitored using a Beckman DU 650 Spectrophotometer. Production of ADP was coupled to oxidation of NADH using phosphoenolpyruvate (PEP) through the actions of pyruvate kinase (PK) and lactic dehydrogenase (LDH). The oxidation of NADH was monitored by following the decrease in absorbance at 340 nm (ε340=6.22 cm^−1 mM^−1). Typical reaction solutions contained: 1 mM PEP, 250 μM NADH, 50 units of LDH/mL, 20 units of PK/mL, 5 mM DTT, in 200 mM Hepes, pH 7.5 and varying concentrations of poly(E4Y1), ATP and MgCl2. Assays were initiated with 40 nM of […].

## c1ccc2[nH]c(-c3n[nH]c4ccc(-c5cccc6[nH]ccc56)cc34)nc2c1 [Example 48, 3-(1H-Benzoimidazol-2-yl)-5-(1H-indol-4-yl)-1H-indazole]
Human CHK1
  Ki: 7.82 µM

## Fc1ccccc1-c1ccc2[nH]nc(-c3nc4ccccc4[nH]3)c2c1 [Example 6, 3-(1H-Benzoimidazol-2-yl)-5-(2-fluorophenyl)-1H-Indazole]
Human CHK1
  inhibition at 20 µM: 80%
LCK tyrosine kinase
  inhibition at 1 µM: 11%

## Cc1c(O)cccc1-c1ccc2[nH]nc(/C=C/c3ccccc3)c2c1 [15′, 2-Methyl-3-[3-((E)-styryl)-1H-indazol-5-yl]-phenol]
Human CHK1; read-out: CHK1 % inhibition at 1 μM
  inhibition at 1 µM: 16%
LCK tyrosine kinase
  inhibition at 1 µM: 17%

## Cc1c(O)cccc1-c1ccc2[nH]nc(-c3nc4ccccc4[nH]3)c2c1 [10′, 3-[3-(1H-Benzoimidazol-2-yl)-1H-indazol-5-yl]-2-methyl-phenol]
Human CHK1; read-out: CHK1 % inhibition @ 10 μM, at 10 μM
  inhibition at 10 µM: 5%
LCK tyrosine kinase
  inhibition at 1 µM: 21%

## C(=C\c1n[nH]c2ccc(-c3cncc4ccccc34)cc12)/c1ccccc1 [Example 16]
Human CHK1
  Ki: 81 µM
FAK
  FAK % Inhibition at 1 μM: 47%

From US7232912B2, “Indazole compounds, pharmaceutical compositions, and methods for mediating or inhibiting cell proliferation” (Agouron Pharmaceuticals, Inc., priority 2000, dated 2007)
